Earlier results in US20120100192A1, “LOCAL THERAPEUTIC RELEASE DEVICE” (DEXCEL PHARMA TECHNOLOGIES LTD., priority 2009, published 2012).

Tests used:
[1] = system: naturally occurring periodontitis; conditions: application for 6-12 months, beagle dogs
[2] = system: experimentally induced periodontal disease; conditions: Macaca mulatta monkeys
[3] = system: periodontal disease; conditions: 100 mg/day for two months; standardized radiography, radiopharmaceutical uptake
[4] = system: alveolar bone loss; conditions: 24 months, FBP-treated patient group
[5] = system: periodontal disease; conditions: topical toothpaste, 1% w/w, twice daily for 12 months

## CC(C(=O)O)c1ccc(-c2ccccc2)c(F)c1 (centres unmarked) [FBP, flurbiprofen]
[1]
  Effect on alveolar bone loss: inhibited alveolar bone loss
[2]
  Effect on attachment, bleeding on probing and gingival redness: significant inhibition of attachment, bleeding on probing and gingival redness
[3]
  Effect on bone metabolism: increased bone metabolism
[4]
  Effect on bone loss: reduction in bone loss
[5]
  Effect on bone: statistically significant bone gain
